The test system of assay [1] is histamine evoked gastric secretion. Put plainly: Inhibition of histamine evoked gastric secretion in dogs with a chronic gastric fistula. The settings on record: Canis lupus familiaris, iv, 0.5 h, read-out: IV ED50 (mg/kg) Total acid output. The assay is classed as in vivo, female beagle dogs. The protocol:
[…] Studies are performed in female beagle dogs with a chronic gastric fistula. The test compounds are administered i.v. at 0 min. Gastric secretion is stimulated by administration of a maximal secretory dose of histamine dihydrochloride ([…], base, s.c.) at 0 min. Gastric output is collected by gravity drainage for three 30 min periods (0-30, 30-60 and 60-90 min). Output volume (ml) is measured and an aliquot is titrated to pH 7 to determine acid concentration (titratable acid mEq/L); total acid output (mEq) is calculated as the product of volume and acid concentration. […]. Percent.inhibition of volume, acid concentration and total acid output is calculated relative to a placebo trial in the same animals; ED50 values are determined by linear regression analysis.

The test system of assay [2] is gastric secretion. Put plainly: Gastric secretion inhibitory activity of intermediate compounds (test not specified). The text has this: Thus, such intermediate compounds are deemed to constitute part of this invention.

Regarding `CNC(=NCCSCc1[nH]cnc1C)NC#N` [D, N-Cyano-N'-methyl-N''-[2-((4-methyl-5-imidazolyl)methylthio)ethyl]guanidine], in assay [1], the ED50 is 1.8 mg/kg.

For `CN(C)Cc1ccc(CSCCNc2n[nH]c(N)n2)o1` [C, 3-N-[2-[(5-Dimethylaminomethyl-2-furanyl)methylthio]ethyl]amino-5-amino-1,2,4-triazole], the ED50 in assay [1] worked out at 1.1 mg/kg.

Turning to `CCOc1n[s+]([O-])nc1NCCSCc1ccc(CN(C)C)o1` (stereo not shown) [3-N-[2-[(5-dimethylaminomethyl-2-furanyl)methylthio]ethyl]amino-4-ethoxy-1,2,5-thiadiazole-1-oxide], the “gastric secretion inhibitory activity” value in assay [2] is on record as “substantial gastric secretion inhibitory activity”.

For `CCOC1=NS(=O)(=O)N=C1NCCSCc1ccc(CN(C)C)o1` [3-N-[2-[(5-dimethylaminomethyl-2-furanyl)methylthio]ethyl]amino-4-ethoxy-1,2,5-thiadiazde-1,1-dioxide], in assay [2], the “gastric secretion inhibitory activity” value is recorded as “substantial gastric secretion inhibitory activity”.

Values taken from EP0040696B1, “Aminothiadiazoles as gastric secretion inhibitors” (Merck & Co., Inc., priority 1980, dated 1981).
